Results as given in US20250304594A1, “METHYL (R)-2-(FLUOROMETHYL)-5-OXO-4-PHENYL-4,5,6,7-TETRAHYDRO-1H-CYCLOPENTA[B]PYRIDINE-3-CARBOXYLATE AND METHYL (R)-2-(FLUOROMETHYL)-5-OXO-4-PHENYL-1,4,5,7-TETRAHYDROFURO[3,4-B]PYRIDINE-3-CARBOXYLATE AS Cav1,2 ACTIVATORS” (Novartis AG, priority 2020, published 2025).

System: cFos mRNA
Experiment: cFos mRNA induction in cortex of wild-type mice (PK-PD)
Type: in vivo, C57BL/6J male mice
Settings: one hour after administration
Procedure: Assessment of Compound Exposure—cFos Induction (PK-PD) Relationship in Wild-Type Mice
Compound administration and brain tissue collection. Wild-type C57BL/6J male mice were obtained from Jackson laboratories (Bar Harbor, ME). The acute, single-dose effects of CaV1.2 activators of the present disclosure were evaluated in male eight-week old mice (n=6 mice per compound). Each compound was dissolved in 10% PEG300, 10% Solutol, 10% Cremophore EL, and 70% Phosphate Buffered Saline and administered intraperitoneal (i.p.) at a concentration of 1 mg/kg up to 30 mg/kg depending on the compound. Animals were euthanized one hour after compound administration via exsanguination under deep anesthesia. Blood was collected in EDTA tubes for downstream analysis of drug levels. Brains were rapidly removed from the skull, and the cerebral cortex and cerebellum were regionally dissected. Cerebellar samples were snap frozen in liquid nitrogen to assess compound exposure. Cortical samples for cFos assessment were placed in 500 μl of RNAlater solution (ThermoFisher) to preserve the integrity of RNA in the sample. Samples remained in RNAlater for at least 24 hours at 4° C. before moving to −80° C. for storage before processing.
Quantification of cFos mRNA induction. Tissue homogenization was performed using TissueLyser system for 96 well plates (Qiagen). First, frozen cortical samples were thawed, removed from RNAlater, and placed into TissueLyser tubes along with Buffer RLT containing 0.5% Reagent DX and one 5 mm TissueLyser metal bead. The TissueLyser tubes were loaded into a TissueLyser II tissue homogenizer for 3 rounds of homogenization, with each round lasting 5 minutes at 30 Hz bead-beating frequency. Total RNA was purified from the homogenate using RNeasy 96 Plus kit (Qiagen), RNA concentration and A260/A280 ratio were quantified via the Nanodrop (ThermoFisher), and all samples were normalized to 100 ng/μL concentration. RNA was reverse transcribed into cDNA using the Superscript III First-strand synthesis SuperMix Kit (ThermoFisher). For each sample, 6 μL of RNA (600 ng total) was mixed with 1 μL of Oligo dT and 1 μl of annealing buffer and heated to 65° C. for 5 minutes. Next, 10 μL of 2× First-Strand Reaction Mix and 2 μl of the Enzyme mix were added to achieve a total reaction volume of 20 μL. The samples were heated to 50° C. for 50 minutes then 85° C. for 5 minutes to complete cDNA synthesis.
Quantitative PCR was performed on the cDNA samples using Quantitect Multiplex RT-PCR kit (Qiagen) in a 384-well assay format. Each PCR well contained 2 μl of cDNA (60 ng total), 10 μL of RT-PCR mastermix, 1 μL of cFos FAM Taqman probe (Mm00487425_m1 (FAM) #4351368), 1 μL of GAPDH VIC Taqman probe (Mm99999915-g1 (VIC) #4448486), 0.2 μl of Multiplex RT mix and 5.8 μl of RNase-free water. On the ViiA7 Real-Time PCR system (ThermoFisher), the samples were heated to 95° C. for 15 minutes then cycled between 94° C. for 45 seconds and 60° C. for 45 seconds for 45 cycles. cFos Ct values were exported, normalized to GAPDH Ct values, and converted to relative fold change in expression using the delta-delta Ct relative quantification method. cFos fold changes between compound treatments and vehicle were analyzed by one-way ANOVA, followed by Tukey's post-hoc comparisons.

| Compound | %↑cFOS mRNA cortex (3 mg/kg ip) | %↑cFOS mRNA cortex (10 mg/kg ip) |
| --- | --- | --- |
| COC(=O)C1=C(CF)NC2=C(C(=O)OC2)[C@H]1c1cccc(F)c1[C@H]1CC1(F)F (single isomer, unassigned) [Example 1, methyl (R)-4-(2-((R or S)-2,2-difluorocyclopropyl)-3-fluorophenyl)-2-(fluoromethyl)-5-oxo-1,4,5,7-tetrahydrofuro[3,4-b]pyridine-3-carboxylate] | 254% | – |
| COC(=O)C1=C(CF)NC2=C(C(=O)OC2)[C@H]1c1cccc(F)c1C1CC1 (single isomer, unassigned) [Example 2] | 378% | – |
| COC(=O)C1=C(CF)NC2=C(C(=O)OC2)[C@H]1c1cc(F)cc(F)c1[C@H]1CC1(F)F (single isomer, unassigned) [Example 3, Methyl (R)-4-(2-((R or S)-2,2-difluorocyclopropyl)-3,5-difluorophenyl)-2-(fluoromethyl)-5-oxo-1,4,5,7-tetrahydrofuro[3,4-b]pyridine-3-carboxylate] | 204% | – |
| COC(=O)C1=C(CF)NC2=C(C(=O)OC2)[C@H]1c1cc(F)cc(F)c1[C@H]1CC1(F)F (single isomer, unassigned) [Example 4, Methyl (R)-4-(2-((R or S)-2,2-difluorocyclopropyl)-3,5-difluorophenyl)-2-(fluoromethyl)-5-oxo-1,4,5,7-tetrahydrofuro[3,4-b]pyridine-3-carboxylate] | 161% | – |
| COC(=O)C1=C(CF)NC2=C(C(=O)OC2)[C@H]1c1cc(F)cc(F)c1[C@H](C)F (single isomer, unassigned) [Example 5, methyl (R)-4-(3,5-difluoro-2-((R or S)-1-fluoroethyl)phenyl)-2-(fluoromethyl)-5-oxo-1,4,5,7-tetrahydrofuro[3,4-b]pyridine-3-carboxylate] | 400% | – |
| COC(=O)C1=C(CF)NC2=C(C(=O)OC2)[C@H]1c1cccc(F)c1[C@H](F)CF (single isomer, unassigned) [Example 6] | 199% | – |
| COC(=O)C1=C(CF)NC2=C(C(=O)CC2)[C@H]1c1cccc(F)c1[C@@H](F)CF (single isomer, unassigned) [Example 7, methyl (R)-4-(2-((R or S)-1,2-difluoroethyl)-3-fluorophenyl)-2-(fluoromethyl)-5-oxo-4,5,6,7-tetrahydro-1H-cyclopenta[b]pyridine-3-carboxylate] | 262% | – |
| COC(=O)C1=C(CF)NC2=C(C(=O)OC2)[C@H]1c1cccc(F)c1[C@@H](C)F (single isomer, unassigned) [Example 8] | 496% | – |
| COC(=O)C1=C(CF)NC2=C(C(=O)OC2)[C@H]1c1ccccc1OC(F)F (single isomer, unassigned) [Example 9] | 290% | 525% |
| COC(=O)C1=C(CF)NC2=C(C(=O)OC2)[C@H]1c1cc(F)cc(F)c1C(F)(F)F (single isomer, unassigned) [Example 10] | 225% | – |
| COC(=O)C1=C(CF)NC2=C(C(=O)OC2)[C@H]1c1cccc(F)c1CC(F)F (single isomer, unassigned) [Example 11] | 160% | – |
| COC(=O)C1=C(CF)NC2=C(C(=O)OC2)[C@H]1c1cc(F)cc(F)c1C1CC1 (single isomer, unassigned) [Example 13] | 225% | 444% |
| COC(=O)C1=C(CF)NC2=C(C(=O)OC2)[C@H]1c1cccc(F)c1C(F)F (single isomer, unassigned) [Example 15] | 176% | 294% |
| COC(=O)C1=C(CF)NC2=C(C(=O)OC2)[C@H]1c1cc(F)cc(F)c1[C@H](F)CF (single isomer, unassigned) [Example 16, methyl (R)-4-(2-((R or S)-1,2-difluoroethyl)-3,5-difluorophenyl)-2-(fluoromethyl)-5-oxo-1,4,5,7-tetrahydrofuro[3,4-b]pyridine-3-carboxylate] | 234% | – |
| COC(=O)C1=C(CF)NC2=C(C(=O)OC2)[C@H]1c1cccc(F)c1C(F)(F)F (single isomer, unassigned) [Example 17] | 201% | – |
| COC(=O)C1=C(CF)NC2=C(C(=O)OC2)[C@H]1c1cc(F)cc(F)c1C(F)F (single isomer, unassigned) [Example 18] | 173% | 280% |
| COC(=O)C1=C(CF)NC2=C(C(=O)OC2)[C@H]1c1cc(F)ccc1C(F)(F)F (single isomer, unassigned) [Example 23] | 365% | – |
| COC(=O)C1=C(CF)NC2=C(C(=O)CC2)[C@H]1c1cccc(F)c1C1CC1 (single isomer, unassigned) [Example 28] | 293% | – |
